Assay results reported in patent US7803930B2, “Antisense modulation of apolipoprotein B-expression” (Isis Pharmaceuticals, Inc., priority 2002, dated 2010).
In the oligonucleotide strings, read from the 5' end, every base follows the letter of its sugar. An asterisk marks phosphorothioate; unmarked linkages are phosphodiester. Other units and linkages are bracketed, terminal groups are in braces. A string of capitals states the bases alone. e = 2'-O-(2-methoxyethyl) (MOE); [5mC] = 5-methylcytosine; d = 2'-deoxy (DNA)

Tested on: human apolipoprotein B mRNA
Experiment: Inhibition of human apolipoprotein B mRNA levels in HepG2 cells, quantitative real-time PCR
Assay type: cell-based
Conditions: for % INHIB: Table 1; for % INHIB / Percent Inhibition 50 nM / Percent Inhibition 150 nM / Percent Inhibition 250 nM: HepG2 cells; for % INHIB / Percent Inhibition 150 nM: 150 nM; for % INHIB / % INHIB (inhibition of human apolipoprotein B mRNA levels): averages from two experiments; for Percent Inhibition 50 nM / Percent Inhibition 150 nM / Percent Inhibition 250 nM: Table 2; for % INHIB (inhibition of human apolipoprotein B mRNA levels): HepG2 cells treated with 150 nM of compound, quantitative real-time PCR
Description: The human hepatoblastoma cell line HepG2 was obtained from the American Type Culture Collection (Manassas, Va.). HepG2 cells were routinely cultured in Eagle's MEM supplemented with 10% fetal calf serum, non-essential amino acids, and 1 mM sodium pyruvate (Gibco/Life Technologies, Gaithersburg, Md.). Cells were routinely passaged by trypsinization and dilution when they reached 90% confluence. Cells were seeded into 96-well plates (Falcon-Primaria #3872) at a density of 7000 cells/well for use in RT-PCR analysis.
When cells reached 80% confluency, they were treated with oligonucleotide. For cells grown in 96-well plates, wells were washed once with 200 μL OPTI-MEM™-1 reduced-serum medium (Gibco BRL) and then treated with 130 μL of OPTI-MEM™-1 containing 3.75 μg/mL LIPOFECTIN™ (Gibco BRL) and the desired concentration of oligonucleotide. After 4-7 hours of treatment, the medium was replaced with fresh medium. Cells were harvested 16-24 hours after oligonucleotide treatment.
Quantitation of apolipoprotein B mRNA levels was determined by real-time quantitative PCR using the ABI PRISM™ 7700 Sequence Detection System (PE-Applied Biosystems, Foster City, Calif.) according to manufacturer's instructions. This is a closed-tube, non-gel-based, fluorescence detection system which allows high-throughput quantitation of polymerase chain reaction (PCR) products in real-time. As opposed to standard PCR, in which amplification products are quantitated after the PCR is completed, products in real-time quantitative PCR are quantitated as they accumulate. This is accomplished by including in the PCR reaction an oligonucleotide probe that anneals specifically between the forward and reverse PCR primers, and contains two fluorescent dyes. A reporter dye (e.g., JOE, FAM, or VIC, obtained from either Operon Technologies Inc., Alameda, Calif. or PE-Applied Biosystems, Foster City, Calif.) is attached to the 5′ end of the probe and a quencher dye (e.g., TAMRA, obtained from either Operon Technologies Inc., Alameda, Calif. or PE-Applied Biosystems, Foster City, Calif.) is attached to the 3′ end of the probe. When the probe and dyes are intact, reporter dye emission is quenched by the proximity of the 3′ quencher dye. During amplification, annealing of the probe to the target sequence creates a substrate that can be cleaved by the 5′-exonuclease activity of Taq polymerase. […] With each cycle, additional reporter dye molecules are cleaved from their respective probes, and the fluorescence intensity is monitored at regular intervals by laser optics built into the ABI PRISM™ 7700 Sequence Detection System. In each assay, a series of parallel reactions containing serial dilutions of mRNA from untreated control samples generates a standard curve that is used to quantitate the percent inhibition after antisense oligonucleotide treatment of test samples.
PCR reagents were obtained from PE-Applied Biosystems, Foster City, Calif. RT-PCR reactions were carried out by adding 25 μL PCR cocktail (1× TAQMAN™ buffer A, 5.5 mM MgCl2, 300 μM each of DATP, dCTP and dGTP, 600 μM of dUTP, 100 nM each of forward primer, reverse primer, and probe, 20 Units RNAse inhibitor, 1.25 Units AMPLITAQ GOLD™, and 12.5 Units MuLV reverse transcriptase) to 96 well plates containing 25 μL total RNA solution. The RT reaction was carried out by incubation for 30 minutes at 48° C. Following a 10 minute incubation at 95° C. to activate the AMPLITAQ GOLD™, 40 cycles of a two-step PCR protocol were carried out: 95° C. for 15 seconds (denaturation) followed by 60° C. for 1.5 minutes (annealing/extension).
Gene target quantities obtained by real time RT-PCR are normalized using either the expression level of GAPDH, a gene whose expression is constant, or by quantifying total RNA using RiboGreen™ (Molecular Probes, Inc. Eugene, Oreg.). GAPDH expression is quantified by real time RT-PCR, by being run simultaneously with the target, multiplexing, or separately. […]

| Substance | % INHIB [%] | further results |
| --- | --- | --- |
| 147780 (antisense e[5mC]*e[5mC]*eG*e[5mC]*eA*dG*dG*dT*d[5mC]*d[5mC]*d[5mC]*dG*dG*dT*dG*eG*eG*eA*eA*eT) [compound 147780] | 40 | – |
| 147781 (antisense eA*e[5mC]*e[5mC]*eG*eA*dG*dA*dA*dG*dG*dG*d[5mC]*dA*d[5mC]*dT*e[5mC]*eA*eG*e[5mC]*e[5mC]) [compound 147781] | 35 | – |
| 147782 (antisense eG*e[5mC]*e[5mC]*eT*e[5mC]*dG*dG*d[5mC]*d[5mC]*dT*d[5mC]*dG*d[5mC]*dG*dG*e[5mC]*e[5mC]*e[5mC]*eT*eG) [compound 147782] | 67 | – |
| 147784 (antisense e[5mC]*eA*eG*e[5mC]*eG*d[5mC]*d[5mC]*dA*dG*d[5mC]*dA*dG*d[5mC]*dG*d[5mC]*e[5mC]*eA*eG*e[5mC]*eA) [compound 147784] | 70 | – |
| 147785 (antisense eG*e[5mC]*e[5mC]*e[5mC]*eG*d[5mC]*d[5mC]*dA*dG*d[5mC]*dA*dG*d[5mC]*dA*dG*e[5mC]*eA*eG*e[5mC]*eA) [compound 147785] | 29 | – |
| 147786 (antisense e[5mC]*eT*eT*eG*eA*dA*dT*d[5mC]*dA*dG*d[5mC]*dA*dG*dT*d[5mC]*e[5mC]*e[5mC]*eA*eG*eG) [compound 147786] | 34 | – |
| 147788 (antisense eT*eT*eT*e[5mC]*eT*dG*dT*dT*dG*d[5mC]*d[5mC]*dA*d[5mC]*dA*dT*eT*eG*e[5mC]*e[5mC]*e[5mC]) [compound 147788] | 95 | Percent Inhibition 50 nM: 54%; Percent Inhibition 150 nM: 63%; Percent Inhibition 250 nM: 72% |
| 147789 (antisense eG*eG*eA*eA*eG*dA*dG*dG*dT*dG*dT*dT*dG*d[5mC]*dT*e[5mC]*e[5mC]*eT*eT*eG) [compound 147789] | 24 | – |
| 147790 (antisense eT*eG*eT*eG*e[5mC]*dT*dA*d[5mC]*d[5mC]*dA*dT*d[5mC]*d[5mC]*d[5mC]*dA*eT*eA*e[5mC]*eT*eT) [compound 147790] | 33 | – |
| 147792 (antisense eG*eG*eA*e[5mC]*eA*d[5mC]*d[5mC]*dT*d[5mC]*dA*dA*dT*d[5mC]*dA*dG*e[5mC]*eT*eG*eT*eG) [compound 147792] | 26 | – |
| 147794 (antisense eG*eT*eA*eA*eT*d[5mC]*dT*dT*d[5mC]*dA*dT*d[5mC]*d[5mC]*d[5mC]*d[5mC]*eA*eG*eT*eG*e[5mC]) [compound 147794] | 47 | – |
| 147796 (antisense eG*e[5mC]*eA*eG*e[5mC]*d[5mC]*dA*dG*dT*d[5mC]*dG*d[5mC]*dT*dT*dA*eT*e[5mC]*eT*e[5mC]*e[5mC]) [compound 147796] | 8 | – |
| 147801 (antisense e[5mC]*eA*eG*eA*e[5mC]*d[5mC]*d[5mC]*dG*dA*d[5mC]*dT*d[5mC]*dG*dT*dG*eG*eA*eA*eG*eA) [compound 147801] | 38 | – |
| 147806 (antisense eA*eT*eG*eT*eG*dG*dT*dA*dA*d[5mC]*dG*dA*dG*d[5mC]*d[5mC]*e[5mC]*eG*eA*eA*eG) [compound 147806] | 100 | Percent Inhibition 50 nM: 23%; Percent Inhibition 150 nM: 45%; Percent Inhibition 250 nM: 28% |
| 147807 (antisense eG*eG*e[5mC]*eG*eT*dA*dG*dA*dG*dA*d[5mC]*d[5mC]*d[5mC]*dA*dT*e[5mC]*eA*e[5mC]*eA*eT) [compound 147807] | 25 | – |
| 147809 (antisense e[5mC]*e[5mC]*e[5mC]*eA*eG*dT*dG*dA*dT*dA*dG*d[5mC]*dT*d[5mC]*dT*eG*eT*eG*eA*eG) [compound 147809] | 60 | – |
| 147810 (antisense eA*eT*eT*eT*e[5mC]*dA*dG*d[5mC]*dA*dT*dA*dT*dG*dA*dG*e[5mC]*e[5mC]*e[5mC]*eA*eT) [compound 147810] | 0 | – |

| Substance | % INHIB [%] | further results |
| --- | --- | --- |
| 147814 (antisense e[5mC]*e[5mC]*e[5mC]*eA*eA*dT*dA*dA*dG*dA*dT*dT*dT*dA*dT*eA*eA*e[5mC]*eA*eA) [compound 147814] | 34 | – |
| 147815 (antisense eT*eG*eG*e[5mC]*e[5mC]*dT*dA*d[5mC]*d[5mC]*dA*dG*dA*dG*dA*d[5mC]*eA*eG*eG*eT*eA) [compound 147815] | 45 | – |
| 147816 (antisense eT*e[5mC]*eA*eT*eA*d[5mC]*dG*dT*dT*dT*dA*dG*d[5mC]*d[5mC]*d[5mC]*eA*eA*eT*e[5mC]*eT) [compound 147816] | 100 | Percent Inhibition 50 nM: 25%; Percent Inhibition 150 nM: 81%; Percent Inhibition 250 nM: 65% |
| 147817 (antisense eG*e[5mC]*eA*eT*eG*dG*dT*d[5mC]*d[5mC]*d[5mC]*dA*dA*dG*dG*dA*eT*eG*eG*eT*e[5mC]) [compound 147817] | 0 | – |
| 147818 (antisense eA*eG*eT*eG*eA*dT*dG*dG*dA*dA*dG*d[5mC]*dT*dG*d[5mC]*eG*eA*eT*eA*e[5mC]) [compound 147818] | 30 | – |
| 147820 (antisense eG*eA*eA*e[5mC]*eA*d[5mC]*dA*dT*dA*dG*d[5mC]*d[5mC]*dG*dA*dA*eT*eG*e[5mC]*e[5mC]*eG) [compound 147820] | 100 | Percent Inhibition 50 nM: 10%; Percent Inhibition 150 nM: 0%; Percent Inhibition 250 nM: 73% |
| 147823 (antisense eT*eG*e[5mC]*e[5mC]*e[5mC]*dT*dG*d[5mC]*dA*dG*d[5mC]*dT*dT*d[5mC]*dA*e[5mC]*eT*eG*eA*eA) [compound 147823] | 19 | – |
| 147825 (antisense eA*eG*eA*eA*eG*d[5mC]*dT*dG*d[5mC]*d[5mC]*dT*d[5mC]*dT*dT*d[5mC]*eT*eT*e[5mC]*e[5mC]*e[5mC]) [compound 147825] | 72 | – |
| 147826 (antisense eT*e[5mC]*eA*eG*eG*dG*dT*dG*dA*dG*d[5mC]*d[5mC]*d[5mC]*dT*dG*eT*eG*eT*eG*eT) [compound 147826] | 80 | – |
| 147827 (antisense e[5mC]*eT*eA*eA*eT*dG*dG*d[5mC]*d[5mC]*d[5mC]*d[5mC]*dT*dT*dG*dA*eT*eA*eA*eA*e[5mC]) [compound 147827] | 13 | – |
| 147828 (antisense eA*e[5mC]*eG*eT*eT*dA*dT*d[5mC]*d[5mC]*dT*dT*dG*dA*dG*dT*e[5mC]*e[5mC]*e[5mC]*eT*eG) [compound 147828] | 12 | – |
| 147829 (antisense eT*eA*eT*eA*eT*d[5mC]*d[5mC]*d[5mC]*dA*dG*dG*dT*dT*dT*d[5mC]*e[5mC]*e[5mC]*e[5mC]*eG*eG) [compound 147829] | 64 | – |
| 147831 (antisense e[5mC]*eT*eG*e[5mC]*e[5mC]*dT*dA*d[5mC]*dT*dG*d[5mC]*dA*dA*dG*dG*e[5mC]*eT*eG*eG*e[5mC]) [compound 147831] | 0 | – |
| 147833 (antisense eA*eT*eG*eA*eT*dA*d[5mC]*dA*d[5mC]*dA*dA*dT*dA*dA*dA*eG*eA*e[5mC]*eT*e[5mC]) [compound 147833] | 25 | – |
| 270985 (antisense eT*eT*e[5mC]*e[5mC]*eT*d[5mC]*dT*dT*d[5mC]*dG*dG*d[5mC]*d[5mC]*d[5mC]*dT*eG*eG*e[5mC]*eG*e[5mC]) [compound 270985] | – | % INHIB (inhibition of human apolipoprotein B mRNA levels): 75% |
| 270986 (antisense e[5mC]*eT*e[5mC]*e[5mC]*eA*d[5mC]*dT*dG*dG*dA*dA*d[5mC]*dT*d[5mC]*dT*e[5mC]*eA*eG*e[5mC]*e[5mC]) [compound 270986] | – | % INHIB (inhibition of human apolipoprotein B mRNA levels): 0% |
